The results in this text go back to PubChem BioAssay AID328 (DTP/NCI, 2004).

The subject of assay [1] is BDF1 mice, P388 leukemia ip, median survival T/C. In words: NCI In Vivo Anticancer Drug Screen. Data for tumor model P388 Leukemia (intraperitoneal) in B6D2F1 (BDF1) mice. The conditions noted are these: endpoint: median survival time, higher = longer survival. In short, it runs like this:
(§1)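 T/C = treated-group survival ÷ vehicle-control survival; tumour transplanted into mice before dosing.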

Assay [2] concerns BDF1 mice, P388 leukemia ip. The assay is described as above. The conditions noted are these: endpoint: mean survival time, higher = longer survival. In short, it runs like this: as §1
The mark [3] stands for this setting: dose: 50.0 mg/kg/injection, schedule: Q01DX009 (ip), vehicle: saline.
Where [4] appears, read: dose: 100.0 mg/kg/injection, schedule: Q01DX009 (ip), vehicle: saline.
Setting [5] is: dose: 100.0 mg/kg/injection, schedule: Q01DX009 (ip), vehicle: saline with Tween-80.
The mark [6] stands for this setting: dose: 200.0 mg/kg/injection, schedule: Q01DX009 (ip), vehicle: saline with Tween-80.
The mark [7] stands for this setting: dose: 400.0 mg/kg/injection, schedule: Q01DX009 (ip), vehicle: saline with Tween-80.

Inconclusive results and toxic doses are left out.

As for `C/C=C/c1cc2c(c(=O)o1)C(=O)[C@@H](O)[C@H](C)O2`, the T/C in assay [1] (dose: 11.0 mg/kg/injection, schedule: Q01DX010 (ip), vehicle: other) was 120 % of control; in assay [1] (dose: 25.0 mg/kg/injection, schedule: Q01DX010 (ip), vehicle: other), 154 % of control; in assay [1] (dose: 50.0 mg/kg/injection, schedule: Q01DX010 (ip), vehicle: other), 150 % of control; in assay [1] (dose: 100.0 mg/kg/injection, schedule: Q01DX010 (ip), vehicle: other) it was 150 % of control; in assay [2] (dose: 25.0 mg/kg/injection, schedule: Q01DX010 (ip), vehicle: carboxymethylcellulose (CMC)), 119 % of control.

As to `CCOC(CN(Cc1ccc(OCc2ccccc2)c(OC)c1)S(=O)(=O)c1ccc(C)cc1)OCC`, the T/C in assay [2] (dose: 25.0 mg/kg/injection, schedule: Q01DX009 (ip), vehicle: water) was 93 % of control; in assay [2] (dose: 50.0 mg/kg/injection, schedule: Q01DX009 (ip), vehicle: water) it was 97 % of control; in assay [2] (dose: 100.0 mg/kg/injection, schedule: Q01DX009 (ip), vehicle: water), 93 % of control; in assay [2] (dose: 200.0 mg/kg/injection, schedule: Q01DX009 (ip), vehicle: water), 90 % of control.

Consider `CC1(C)C(=O)C(O)=C[C@H]2C1=CC[C@@H]1[C@]2(C)C(=O)C[C@]2(C)[C@@H]([C@@](C)(O)C(=O)CC(O)C(C)(C)O)C(O)C[C@@]12C` (some centres not stated), for which the T/C in assay [2] (dose: 18.0 mg/kg/injection, schedule: Q01DX010 (ip), vehicle: carboxymethylcellulose (CMC)) is 99 % of control.

In the case of `CN(CCCCN(C)CCOS(C)(=O)=O)CCOS(C)(=O)=O`, the T/C in assay [1] (dose: 0.8 mg/kg/injection, schedule: Q04DX003 (ip), vehicle: saline) was 177 % of control; in assay [1] (dose: 1.2 mg/kg/injection, schedule: Q04DX003 (ip), vehicle: saline), 172 % of control; in assay [1] (dose: 1.8 mg/kg/injection, schedule: Q04DX003 (ip), vehicle: saline), 154 % of control.

Consider `N#Cc1cn[nH]c1N`, for which the T/C in assay [1] (setting [3]) was 100 % of control; in assay [1] (setting [4]), 109 % of control; in assay [1] (dose: 200.0 mg/kg/injection, schedule: Q01DX009 (ip), vehicle: saline) it was 98 % of control.

`ClCC1CCN(CCc2ccccc2)CC1`: the T/C was 95 % of control in assay [1] (setting [3]) and 99 % of control in assay [1] (setting [4]).

For `Cc1[nH]ncc1Br`, the figures for the T/C in assay [1] (setting [5]), in assay [1] (setting [6]) and in assay [1] (setting [7]) were 105 % of control, 98 % of control and 105 % of control, respectively.

In the case of `C#CC[N+]12CN3CN(CN(C3)C1)C2`, the T/C in assay [1] (setting [3]) is 123 % of control.

As for `Cc1ccc(S(=O)(=O)N2CC3CC2CN3Cc2ccccc2)cc1` (configuration not stated), the T/C in assay [1] (dose: 100.0 mg/kg/injection, schedule: Q01DX009 (ip), vehicle: Klucel (hydroxypropylcellulose) (HPC)) was 109 % of control; in assay [1] (dose: 100.0 mg/kg/injection, schedule: Q04DX003 (ip), vehicle: Klucel (hydroxypropylcellulose) (HPC)), 104 % of control; in assay [1] (dose: 200.0 mg/kg/injection, schedule: Q01DX009 (ip), vehicle: Klucel (hydroxypropylcellulose) (HPC)) it was 104 % of control; in assay [1] (dose: 200.0 mg/kg/injection, schedule: Q04DX003 (ip), vehicle: Klucel (hydroxypropylcellulose) (HPC)) it was 100 % of control; in assay [1] (dose: 400.0 mg/kg/injection, schedule: Q01DX009 (ip), vehicle: Klucel (hydroxypropylcellulose) (HPC)), 100 % of control; in assay [1] (dose: 400.0 mg/kg/injection, schedule: Q04DX003 (ip), vehicle: Klucel (hydroxypropylcellulose) (HPC)) it was 95 % of control.

For `CC(=O)C(C)(c1ccccc1)N(Cc1ccccc1)C(=O)c1ccccc1` (configuration not stated), the T/C in assay [1] (dose: 100.0 mg/kg/injection, schedule: Q01DX001 (ip), vehicle: saline) is 109 % of control; in assay [1] (dose: 200.0 mg/kg/injection, schedule: Q01DX001 (ip), vehicle: saline) it was 109 % of control; in assay [1] (dose: 400.0 mg/kg/injection, schedule: Q01DX001 (ip), vehicle: saline) it was 104 % of control.

With `CCOC(=O)C1CC1Cc1ccccc1` (configuration not stated), the T/C is 108 % of control in assay [1] (setting [5]); 104 % of control in assay [1] (dose: 100.0 mg/kg/injection, schedule: Q04DX003 (ip), vehicle: saline with Tween-80); 108 % of control in assay [1] (setting [6]); 108 % of control in assay [1] (dose: 200.0 mg/kg/injection, schedule: Q04DX003 (ip), vehicle: saline with Tween-80); 120 % of control in assay [1] (setting [7]); 113 % of control in assay [1] (dose: 400.0 mg/kg/injection, schedule: Q04DX003 (ip), vehicle: saline with Tween-80).

For the molecule `CC1(C)N=C(N)N=C(N)N1c1cccc(OCCOc2ccc([N+](=O)[O-])cc2)c1`, the T/C in assay [1] (dose: 50.0 mg/kg/injection, schedule: Q01DX009 (ip), vehicle: saline sonified) was 110 % of control; in assay [1] (dose: 50.0 mg/kg/injection, schedule: Q04DX003 (ip), vehicle: saline sonified), 100 % of control; in assay [1] (dose: 100.0 mg/kg/injection, schedule: Q01DX009 (ip), vehicle: saline sonified) it was 160 % of control; in assay [1] (dose: 100.0 mg/kg/injection, schedule: Q04DX003 (ip), vehicle: saline sonified), 107 % of control; in assay [1] (dose: 200.0 mg/kg/injection, schedule: Q04DX003 (ip), vehicle: saline sonified), 107 % of control.
